# Measured values: PubChem BioAssay AID1963830 (Molecular Pharmacology Branch, DTP, NCI, 2024)
# System: 922993-354-T-J3-PDC complex spheroid viability
# Assay: Anticancer human tumor 922993-354-T-J3-PDC patient-derived endometrial carcinoma cell line growth inhibition [POLQ]
# Conditions: for IC50: curve of first compound; for viability, T/C: stronger effect = lower value
# In short: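 PDC + HUVEC + MSC complex spheroids; POLQ inhibitors ± partner drugs; top conc. at/near clinical Cmax, else 10 microM (SN-38 1 microM), half-log dilutions; 37 degrees C, 5% CO2.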
# [1] = second compound 0.0316 µM, first compound 0.0316 µM
# [2] = second compound 0.0316 µM, first compound 0.1 µM
# [3] = second compound 0.0316 µM, first compound 0.316 µM
# [4] = second compound 0.0316 µM, first compound 1 µM
# [5] = second compound 0.0316 µM, first compound 3.16 µM
# [6] = second compound 0.0316 µM, first compound 10 µM
# [7] = second compound 0.1 µM, first compound 0.0316 µM
# [8] = second compound 0.1 µM, first compound 0.1 µM
# [9] = second compound 0.1 µM, first compound 0.316 µM
# [10] = second compound 0.1 µM, first compound 1 µM
# [11] = second compound 0.1 µM, first compound 3.16 µM
# [12] = second compound 0.1 µM, first compound 10 µM
# [13] = second compound 0.316 µM, first compound 0.0316 µM
# [14] = second compound 0.316 µM, first compound 0.1 µM
# [15] = second compound 0.316 µM, first compound 0.316 µM
# [16] = second compound 0.316 µM, first compound 1 µM
# [17] = second compound 0.316 µM, first compound 3.16 µM
# [18] = second compound 0.316 µM, first compound 10 µM
# [19] = second compound 1 µM, first compound 0.0316 µM
# [20] = second compound 1 µM, first compound 0.1 µM
# [21] = second compound 1 µM, first compound 0.316 µM
# [22] = second compound 1 µM, first compound 1 µM
# [23] = second compound 1 µM, first compound 3.16 µM
# [24] = second compound 1 µM, first compound 10 µM
# [25] = second compound 3.16 µM, first compound 0.0316 µM
# [26] = second compound 3.16 µM, first compound 0.1 µM
# [27] = second compound 3.16 µM, first compound 0.316 µM
# [28] = second compound 3.16 µM, first compound 1 µM
# [29] = second compound 3.16 µM, first compound 3.16 µM
# [30] = second compound 3.16 µM, first compound 10 µM
# [31] = second compound 10 µM, first compound 0.0316 µM
# [32] = second compound 10 µM, first compound 0.1 µM
# [33] = second compound 10 µM, first compound 0.316 µM
# [34] = second compound 10 µM, first compound 1 µM
# [35] = second compound 10 µM, first compound 3.16 µM
# [36] = second compound 10 µM, first compound 10 µM
# 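Note: spheroids exposed to the agents for one week.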
# 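Throughout, for viability, T/C: 100% = DMSO vehicle control wells.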
compound,measurement,setting,value
CC1COCCN1c1cc(-c2ccnn2C)c2ccnc(-c3ccn[nH]3)c2n1 (stereo not drawn) + COC1C(OC(N)=O)C(O)C(Oc2ccc3c(O)c(NC(=O)c4ccc(O)c(CC=C(C)C)c4)c(=O)oc3c2C)OC1(C)C,IC50,second compound 0.0316 µM,0.121 µM
same,IC50,second compound 0.1 µM,0.185 µM
same,IC50,second compound 0.316 µM,0.172 µM
same,IC50,second compound 1 µM,0.152 µM
same,IC50,second compound 3.16 µM,0.143 µM
same,IC50,second compound 10 µM,0.117 µM
same,"viability, T/C",[1],83.5%
same,"viability, T/C",[2],54.2%
same,"viability, T/C",[3],27.8%
same,"viability, T/C",[4],11.2%
same,"viability, T/C",[5],10.4%
same,"viability, T/C",[6],11.8%
same,"viability, T/C",[7],94.4%
same,"viability, T/C",[8],69.9%
same,"viability, T/C",[9],33.7%
same,"viability, T/C",[10],9.37%
same,"viability, T/C",[11],8.43%
same,"viability, T/C",[12],10.4%
same,"viability, T/C",[13],95.1%
same,"viability, T/C",[14],68.4%
same,"viability, T/C",[15],29.5%
same,"viability, T/C",[16],12.7%
same,"viability, T/C",[17],9.09%
same,"viability, T/C",[18],11.2%
same,"viability, T/C",[19],78.6%
same,"viability, T/C",[20],55.4%
same,"viability, T/C",[21],39.7%
same,"viability, T/C",[22],10.2%
same,"viability, T/C",[23],8.85%
same,"viability, T/C",[24],10.6%
same,"viability, T/C",[25],89.9%
same,"viability, T/C",[26],60%
same,"viability, T/C",[27],27.9%
same,"viability, T/C",[28],9.41%
same,"viability, T/C",[29],7.96%
same,"viability, T/C",[30],11.8%
same,"viability, T/C",[31],82%
same,"viability, T/C",[32],53.3%
same,"viability, T/C",[33],26.8%
same,"viability, T/C",[34],8.03%
same,"viability, T/C",[35],9.82%
same,"viability, T/C",[36],10.7%
CCc1cc2c(N3CCc4c(cc(Cn5ccnc5)cc4-c4cn(C)nc4C(F)(F)F)C3=O)ccnc2c(OC)n1 + COC1C(OC(N)=O)C(O)C(Oc2ccc3c(O)c(NC(=O)c4ccc(O)c(CC=C(C)C)c4)c(=O)oc3c2C)OC1(C)C,IC50,second compound 0.0316 µM,> 10 µM
same,IC50,second compound 0.1 µM,> 10 µM
same,IC50,second compound 0.316 µM,> 10 µM
same,IC50,second compound 1 µM,> 10 µM
same,IC50,second compound 3.16 µM,> 10 µM
same,IC50,second compound 10 µM,> 10 µM
same,"viability, T/C",[1],104%
same,"viability, T/C",[2],110%
same,"viability, T/C",[3],101%
same,"viability, T/C",[4],102%
same,"viability, T/C",[5],96.2%
same,"viability, T/C",[6],71.5%
same,"viability, T/C",[7],108%
same,"viability, T/C",[8],102%
same,"viability, T/C",[9],97.9%
same,"viability, T/C",[10],109%
same,"viability, T/C",[11],97.1%
same,"viability, T/C",[12],79.8%
same,"viability, T/C",[13],104%
same,"viability, T/C",[14],101%
same,"viability, T/C",[15],102%
same,"viability, T/C",[16],97.3%
same,"viability, T/C",[17],86.9%
same,"viability, T/C",[18],79.6%
same,"viability, T/C",[19],97.4%
same,"viability, T/C",[20],101%
same,"viability, T/C",[21],104%
same,"viability, T/C",[22],101%
same,"viability, T/C",[23],90%
same,"viability, T/C",[24],76.6%
same,"viability, T/C",[25],88.1%
same,"viability, T/C",[26],96.5%
same,"viability, T/C",[27],100%
same,"viability, T/C",[28],85.2%
same,"viability, T/C",[29],89.2%
same,"viability, T/C",[30],70.4%
same,"viability, T/C",[31],84%
same,"viability, T/C",[32],82.8%
same,"viability, T/C",[33],105%
same,"viability, T/C",[34],91%
same,"viability, T/C",[35],93.9%
same,"viability, T/C",[36],68.3%
COc1cc2cc(C(=O)CCC(=O)O)sc2cc1OC + COC1C(OC(N)=O)C(O)C(Oc2ccc3c(O)c(NC(=O)c4ccc(O)c(CC=C(C)C)c4)c(=O)oc3c2C)OC1(C)C,IC50,second compound 0.0316 µM,> 10 µM
same,IC50,second compound 0.1 µM,> 10 µM
same,IC50,second compound 0.316 µM,> 10 µM
same,IC50,second compound 1 µM,> 10 µM
same,IC50,second compound 3.16 µM,> 10 µM
same,IC50,second compound 10 µM,> 10 µM
same,"viability, T/C",[1],105%
same,"viability, T/C",[2],94.7%
same,"viability, T/C",[3],108%
same,"viability, T/C",[4],106%
same,"viability, T/C",[5],103%
same,"viability, T/C",[6],60.1%
same,"viability, T/C",[7],103%
same,"viability, T/C",[8],110%
same,"viability, T/C",[9],104%
same,"viability, T/C",[10],105%
same,"viability, T/C",[11],107%
same,"viability, T/C",[12],73.1%
same,"viability, T/C",[13],111%
same,"viability, T/C",[14],101%
same,"viability, T/C",[15],104%
same,"viability, T/C",[16],106%
same,"viability, T/C",[17],101%
same,"viability, T/C",[18],74.2%
same,"viability, T/C",[19],104%
same,"viability, T/C",[20],92.3%
same,"viability, T/C",[21],97.2%
same,"viability, T/C",[22],102%
same,"viability, T/C",[23],105%
same,"viability, T/C",[24],65.1%
same,"viability, T/C",[25],97.4%
same,"viability, T/C",[26],87.6%
same,"viability, T/C",[27],100%
same,"viability, T/C",[28],96.1%
same,"viability, T/C",[29],113%
same,"viability, T/C",[30],61.8%
same,"viability, T/C",[31],86.3%
same,"viability, T/C",[32],75.2%
same,"viability, T/C",[33],101%
same,"viability, T/C",[34],91.4%
same,"viability, T/C",[35],91.4%
same,"viability, T/C",[36],62%
COc1ccc([C@@H](O)c2cc(-c3ncnc4cc(N5CCOCC5)ccc34)c(F)cc2Cl)nn1 + COC1C(OC(N)=O)C(O)C(Oc2ccc3c(O)c(NC(=O)c4ccc(O)c(CC=C(C)C)c4)c(=O)oc3c2C)OC1(C)C,IC50,second compound 0.0316 µM,> 10 µM
same,IC50,second compound 0.1 µM,> 10 µM
same,IC50,second compound 0.316 µM,> 10 µM
same,IC50,second compound 1 µM,> 10 µM
same,IC50,second compound 3.16 µM,> 10 µM
same,IC50,second compound 10 µM,> 10 µM
same,"viability, T/C",[1],95.1%
same,"viability, T/C",[2],81.3%
same,"viability, T/C",[3],102%
same,"viability, T/C",[4],94.9%
same,"viability, T/C",[5],85.2%
same,"viability, T/C",[6],58.2%
same,"viability, T/C",[7],105%
same,"viability, T/C",[8],92.8%
same,"viability, T/C",[9],102%
same,"viability, T/C",[10],79.6%
same,"viability, T/C",[11],77.8%
same,"viability, T/C",[12],72.9%
same,"viability, T/C",[13],110%
same,"viability, T/C",[14],97%
same,"viability, T/C",[15],96%
same,"viability, T/C",[16],85.2%
same,"viability, T/C",[17],76.6%
same,"viability, T/C",[18],72.2%
same,"viability, T/C",[19],96%
same,"viability, T/C",[20],110%
same,"viability, T/C",[21],99.5%
same,"viability, T/C",[22],98.1%
same,"viability, T/C",[23],85.8%
same,"viability, T/C",[24],74.8%
same,"viability, T/C",[25],84.4%
same,"viability, T/C",[26],93.1%
same,"viability, T/C",[27],101%
same,"viability, T/C",[28],87.9%
same,"viability, T/C",[29],93.6%
same,"viability, T/C",[30],69.2%
same,"viability, T/C",[31],86.1%
same,"viability, T/C",[32],90%
same,"viability, T/C",[33],107%
same,"viability, T/C",[34],83.8%
same,"viability, T/C",[35],88.6%
same,"viability, T/C",[36],69.8%
